Columns and labels:
BRD4 = BRD4 (Homo sapiens, UniProt O60885); assay: HTRF binding assay (cell-free, protein and peptide)
BRD2 = target: T1, BRD2 (Homo sapiens, UniProt P25440); assay: as above
T1 construct: BRD2(1,2)
T1 sequence (P25440 whole entry): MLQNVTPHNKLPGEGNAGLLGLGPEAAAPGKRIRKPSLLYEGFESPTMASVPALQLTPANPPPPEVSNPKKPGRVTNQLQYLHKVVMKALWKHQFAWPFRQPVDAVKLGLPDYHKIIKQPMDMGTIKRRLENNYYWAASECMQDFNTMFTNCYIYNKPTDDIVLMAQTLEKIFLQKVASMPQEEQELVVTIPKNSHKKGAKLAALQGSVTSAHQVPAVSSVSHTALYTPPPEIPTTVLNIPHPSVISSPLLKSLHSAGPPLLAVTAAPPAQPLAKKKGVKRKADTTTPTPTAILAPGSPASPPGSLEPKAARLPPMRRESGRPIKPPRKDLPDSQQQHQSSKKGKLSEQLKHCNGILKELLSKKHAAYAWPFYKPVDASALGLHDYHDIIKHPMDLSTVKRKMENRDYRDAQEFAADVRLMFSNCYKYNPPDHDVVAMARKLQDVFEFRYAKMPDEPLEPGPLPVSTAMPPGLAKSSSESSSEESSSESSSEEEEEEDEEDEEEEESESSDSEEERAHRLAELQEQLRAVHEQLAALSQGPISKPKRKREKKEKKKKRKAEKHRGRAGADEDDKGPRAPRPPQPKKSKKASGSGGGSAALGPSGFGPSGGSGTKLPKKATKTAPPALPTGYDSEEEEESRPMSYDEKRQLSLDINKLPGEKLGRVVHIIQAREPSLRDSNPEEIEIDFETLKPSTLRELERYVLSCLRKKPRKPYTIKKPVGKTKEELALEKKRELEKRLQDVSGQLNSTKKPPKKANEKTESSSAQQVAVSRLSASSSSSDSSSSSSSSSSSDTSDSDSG

## Cc1nnn(C)c1-c1cnc2c3ccc(C(C)(C)O)cc3n([C@H](c3ccccc3)C3CCOCC3)c2c1 [BMS-986158]
BRD4
  IC50: 2.75 nM
BRD2
  IC50: 1.17 nM

Reference: PMC8952190, “Bromodomain and Extra-Terminal Inhibitor BMS-986158 Reverses Latent HIV-1 Infection In Vitro and Ex Vivo by Increasing CDK9 Phosphorylation and Recruitment” (Pharmaceuticals, 2022)
